From patent US7375215B2, “Compounds for PDT” (Bioscience Technology Investment Holdings Limited, priority 2000, dated 2008)

How the values were obtained:
[1] = Spectroscopic properties (absorbance, fluorescence); format: physicochemical; details: for Fluorescence in aqueous solution relative to ethanol: excited at 405 nm, indicates aggregation in water; for Molar extinction coefficient at the red peak: red absorption peak
[2] = usual clinical dose of 0.15 mg kg^−1; cited from earlier work
Solubility in water = format: physicochemical
[3] = tested on: Colo26 mouse colorectal tumour cells; assay: Uptake by Colo26 tumour cells in culture; format: cell-based; details: 1.5 μM; for 6 hour uptake (millions of molecules per cell) / 24 hour uptake (millions of molecules per cell) / Rate of uptake 6-24 h (thousands of molecules per cell per hour): Colo26 cells
Protocol: Colo26 mouse colorectal tumour cells were grown in culture using standard methods. […] At the end of the set time period, the culture medium containing the added photosensitiser was removed and the cells washed with cold phosphate buffered saline. The cells were freed from the culture flask by treatment with trypsin solution. The viable cell count was determined using a standard haemocytometer and the photosensitiser extracted from the cells by treatment with methanol:DMSO (4:1, v:v). Cell extracts were frozen in liquid nitrogen and stored at −70° C. for later analysis. The photosensitiser content of the cell extract was determined by direct fluorescence using standard curves of photosensitiser and correcting for extraction efficiency from the cell suspension. […] (millions of molecules per cell, m against time t (hours)). […] The uptake of m-THPC is rapid, reaching a peak around 24 hours after which the photosensitiser content of the cells declines. […] However, the amount of photosensitiser taken up is greater. […] The mechanism of photosensitiser uptake by cells remains a subject of study. In the case of small hydrophobic sensitisers such as m-THPC, which are generally presented to cells bound to protein or lipoprotein in biological systems, a role for specific lipoprotein receptors has been implicated. […] One way in which uptake mechanisms may be studied is by determining the influence of temperature. In general, active (energy-dependent) uptake processes are inhibited in cells maintained at 4° C. compared to those at 37° C. Passive (energy-independent) uptake processes are much less temperature-dependent.

Balb/c mice = assay: Cutaneous photosensitivity (ear thickness after xenon light irradiation); format: in vivo; details: 0.88 μmol kg^−1, 40 Joules per cm^2 xenon light
Protocol: Cutaneous photosensitivity was determined in adult female Balb/c mice, held under standard conditions and allowed access to food and water ad libitum. […] Each mouse was weighed immediately before injection and the injected volume adjusted to give the correct dose.
At 24 or 72 hours after photosensitiser injection one ear of each mouse was irradiated with full-spectrum xenon light from a 1 KW clinical photo-irradiator (Model UV-90, Applied Photophysics, London). The light was delivered to the ear using a 7 mm diameter light guide (Serial SU3) placed lightly against the ear. The light dose given was 40 Joules per cm^2, which was achieved by exposing the ear for 63 seconds to 245 mW of light from the light guide having a contact area of 0.384 cm^2. The light guide filtered infra-red and ultra-violet light, so as to minimise heating of the ear and damage resulting from ultra-violet light irradiation.
Animals treated with light at the 24 or 72 hour drug-light intervals were killed at 48 or 24 hours respectively after irradiation of the ears. The oedema of the irradiated and control ears was assessed by measuring ear thickness. The thickness of the ear was measured at three sites on the upper third of the ear using a fixed-force micrometer with a vernier-interpolated resolution of 2 μm and an accuracy of 10 μm (Neill instruments).

[4] = tested on: syngeneic colo26 tumour implanted subcutaneously; details: 4.4 μmol kg^−1; drug-light interval 72 hours; light 652 nm; cited from earlier work
[5] = tested on: syngeneic colo26 tumour implanted subcutaneously; assay: Tumour PDT activity (tumour necrosis) in mouse implanted colorectal tumour model
Text: Information on the tumour PDT activity have been obtained in the aforementioned mouse model bearing the syngeneic colo26 tumour implanted subcutaneously at the top of the left hind leg (approximately 1 cm lateral to the spine). The tumours were used after 12 to 16 days when they had reached an average diameter of 8 to 10 mm. For drug injection and irradiation animals were sedated with Hypnorm diluted in water (1:3).

tumour and muscle = details: cited from earlier work
[6] = Plasma and tissue photosensitiser concentrations in tumour-bearing mice
Protocol: Adult female Balb/c mice bearing the syngeneic colo26 tumour implanted subcutaneously were produced using methods previously described (Ansell et al. Lasers in Medical Science 1997, 12, 336-41). Groups of mice of weight 19-22 g were given the photosensitisers at a dose of 0.88 μmol kg^−1 (equivalent to 0.6 mg kg^−1 in the case of m-THPC) by injection into the tail vein. The solutions for injection of each compound were prepared at a concentration of 0.352 μmol ml^−1 so that a typical 20 g mouse would be injected with a volume of 50 μl.
Animals were sacrificed at 6, 24, 72 and 192 hours after injection of each photosensitiser. Immediately after sacrifice, blood was obtained by cardiac puncture, and centrifuged at 13,000×g for three minutes. The resulting supernatant (blood plasma) was aspirated and stored at −70° C. for subsequent analysis. The photosensitiser content of each sample was measured from the fluorescence of an extract obtained using methanol:DMSO (3:5, v:v). A 50 μl portion of each extract was transferred to a disposable fluorescence cuvette and the fluorescence determined using an excitation wavelength of 418 nm and emission wavelength of 650 nm with an eight second response setting. The assay was calibrated using stock solutions of each compound in methanol, further diluted in methanol:water (1:1, v/v) and extracted with methanol:DMSO as described above. […] The measurement protocol was designed to dilute each sample to a sufficient extent to avoid interference by endogenous chromophores (absorbance of samples <<0.1 at the excitation wavelength).
The selectivity for tumour specific tissue distribution was also evaluated in this work. Tissue selectivity was evaluated as the tumour:muscle concentration ratio over the duration of the observation period (4-192 hours post-administration). This ratio provided a direct measure of the normal tissue to tumour tissue differential in concentrations and allows selection of an optimal treatment time for PDT that minimises the potential to cause collateral damage of normal tissues.

[7] = 0.88 μmol kg^−1 i.v., 6-192 hours

Molecule	Fluorescence in aqueous solution relative to ethanol [1]	Molar extinction coefficient at the red peak [1]	6 hour uptake (millions of molecules per cell) ([3]; 4° C.)	24 hour uptake (millions of molecules per cell) ([3]; 4° C.)	Rate of uptake 6-24 h (thousands of molecules per cell per hour) ([3]; 4° C.)	6 hour uptake (millions of molecules per cell) ([3]; 37° C.)	24 hour uptake (millions of molecules per cell) ([3]; 37° C.)	Rate of uptake 6-24 h (thousands of molecules per cell per hour) ([3]; 37° C.)	Differences in ear thickness (irradiated-control), Mean (Balb/c mice; 24 h drug-light interval)	Differences in ear thickness (irradiated-control), Mean (Balb/c mice; 72 h drug-light interval)	also measured
Oc1cccc(-c2c3nc(c(-c4cccc(O)c4)c4ccc([nH]4)c(-c4cccc(O)c4)c4nc(c(-c5cccc(O)c5)c5ccc2[nH]5)CC4)C=C3)c1 [m-THPC, 7,8-dihydro-5,10,15,20-tetrakis(3-hydroxyphenyl)porphyrin]	severely quenched	~30,000 L mol^−1 cm^−1	0.82 millions of molecules per cell	1.33 millions of molecules per cell	28 thousands of molecules per cel	79.2 millions of molecules per cell	208 millions of molecules per cell	7184 thousands of molecules per cel	41 μm	2 μm	Duration of skin sensitivity [2]: 2-3 weeks; Solubility in water (Solubility in water; water): insoluble; Solubility in water (Solubility in water; water / aqueous solvents): insoluble in aqueous solvents; Inhibition of uptake at 4° C., factor ([3]; 4° C. versus 37° C.): over 250; Time of peak uptake by tumour cells ([3]; 37° C.): around 24 hours
tetrakis (ω-methoxypolyethylene glycol [MW=2000] triazine of 7,8-dihydro-5,10,15,20-tetrakis(3-hydroxyphenyl)porphyrin [SPC 0038B]	47%		0.56 millions of molecules per cell	0.64 millions of molecules per cell	4 thousands of molecules per cel	0.82 millions of molecules per cell	0.86 millions of molecules per cell	2 thousands of molecules per cel	25 μm	4 μm	Biological effect (mm of tumour necrosis) [4]: 3.3 ± 0.7 ^1 mm; Fold less potency in comparison to SPC 0172 and m-THPC ([5]; optimal drug-light interval of 72 hours, dose level and degree of tumour necrosis basis): 10-20 fold; Time for which tumour retained maximum sensitivity to light (tumour and muscle; after drug administration, mouse model): at least 15 days; Time of peak concentration in muscle (tumour and muscle; after injection): ≤ 72 h; Muscle photosensitivity (tumour and muscle; three days after administration, mouse model): no longer photosensitive; PDT treatment times with sustained PDT tumour necrosis (tumour and muscle; tumour bioactivity): 4 to 15 days; Uptake in the cold compared with 37° C. ([3]; 4° C. versus 37° C.): twice as great in the cold than at 37 °C; Cell photosensitiser content, factor less than that of m-THPC ([3]; after 72 hours incubation, 37° C.): ~100; Excretion from the liver ([6]; mouse, in vivo): more slowly than m-THPC
tetrakis (6′-(methoxy PEG 2000 carbamate)1′-isocyanate hexamethylene) derivative of 7,8dihydro-5,10,15,20-tetrakis(3-hydroxyphenyl)porphyrin [SPC 0172]	36%	~22,000 L mol^−1 cm^−1	1.08 millions of molecules per cell	1.78 millions of molecules per cell	39 thousands of molecules per cel	1.12 millions of molecules per cell	2.08 millions of molecules per cell	53 thousands of molecules per cel	2 μm	0 μm	PDT activity compared with m-THPC ([5]; Balb/c mice bearing colo26): same PDT activity as m-THPC; Time of maximum photodynamic effect in tumour ([5]; Balb/c mice bearing colo26): 2 days; Damage of surrounding skin and underlying muscle at treated sites ([5]; particularly at the two day drug-light interval): only limited damage of the surrounding skin and underlying muscle; Tumour damage at a range of drug-light intervals ([5]; same dose (1.76 μmol kg^−1), light dose 20 J cm^−2, all drug-light intervals up to 72 hours): Full thickness tumour damage; Uptake on cooling as share of that at 37° C. ([3]; 4° C. versus 37° C.): about 75%; Cell photosensitiser content, times as much as SPC 0038B ([3]; after 72 hours of incubation, 37° C.): about 5; Liver photosensitiser levels [6, 7]: lower and eliminated more quickly; Plasma concentration-time profile [6, 7]: lower absolute levels and more rapid elimination; Skin photosensitiser concentrations [6, 7]: low throughout the 6-192 hour measurement period; Tumour:muscle concentration ratio ([6]; 72 hours post-administration, 0.88 μmol kg^−1 i.v.): about 7.5; Time of optimal tumour:muscle concentration ratio ([6]; post-administration, 0.88 μmol kg^−1 i.v.): 72 h
